This assay concerns cultured murine melanocytes (melan-a). As to the kind of experiment: Melanin assay in cultured murine melanocytes (melan-a). In kind it is cell-based. Particulars: for activity at 1 µM / activity at 5 µM: Mus musculus; for activity at 1 µM: read-out: % of control melanin remaining after treatment @ 1 μM; for activity at 5 µM: read-out: % of control melanin remaining after treatment @ 5 μM; for ability to block melanin accumulation: cells treated with 1 and 5 uM test compound versus carrier (DMSO) only. As to the method: The Spectrum Collection library consisting of 2000 drug compounds or natural products represents a source for the identification of compounds useful in the present invention. The library may be screened to identify novel pigmentation inhibitors in cultured murine melanocytes (melan-a). Compounds are dissolved in dimethylsulfoxide (DMSO) to a final concentration of 10 mM. Screening is performed with cultured melanocytes in 24-well plates followed by melanin assay (see below). A minimum change of 50% in melanin formation is established as significant for a pigmentation inhibitor. DMSO may be used as a negative control and the widely used depigmenting agent, hydroquinone, may be used as a positive control on every plate. Primary screening is performed at a final concentration of 1 μM and potential candidates from the primary screening are reconfirmed in duplicate at final concentrations of 1 and 5 μM.
Melan-a cells are plated at 5×10^4 cells per well in 1 ml of culture media in 24-well plates the day before adding the library compounds. All compounds are added at the indicated final concentrations. Cells are harvested after 72 hours of incubation, and the melanin assay is performed.
For the primary and secondary screening, cells were harvested and dissolved in 200 μl of 2N NaOH in 20% DMSO at 70° C. A 180-μl aliquot of the resulting solution was measured for absorbance at 490 nm.
A series of structurally related compounds was then tested in this screen, to identify compounds that inhibit skin darkening.

The mark [1] stands for this setting: 1 μM test compound, melan-a cells, 72 hours incubation, control = DMSO carrier, absorbance at 490 nm.
Where [2] appears, read: 5 μM test compound, melan-a cells, 72 hours incubation, control = DMSO carrier, absorbance at 490 nm.

Like-named read-outs stand apart in the source and are kept apart here.

As for `CC(C)=CCOc1cc2oc(=O)ccc2cc1O` [Compound 1, PRENYLETIN], the activity at 1 µM under setting [1] came to 79%. Besides, the activity at 5 µM under setting [2] stood at 80%.
Regarding `C=C(C)[C@H]1COc2cc3oc(=O)ccc3cc2O1` [Compound 2, OBLIQUIN], under setting [1], the activity at 1 µM was 84%. For the same molecule, the activity at 5 µM under setting [2] is 95%.
With `CC(C)C1COc2cc3oc(=O)ccc3cc2O1` (stereo not shown) [Compound 3, DIHYDRO-OBLIQUIN], the activity at 1 µM under setting [1] amounted to 81%. Moreover, under setting [2], the activity at 5 µM is 81%.
As to `COc1cc2ccc(=O)oc2c(OC)c1OC` [Compound 4, FRAXIDIN METHYL ETHER], under setting [1], the activity at 1 µM was found to be 87%. For the same molecule, the activity at 5 µM under setting [2] is 95%.
Turning to `CC1(C)C=Cc2cc3ccc(=O)oc3cc2O1` [Compound 5, XANTHYLETIN], the activity at 1 µM under setting [1] turned out to be 99%. The activity at 5 µM under setting [2] is 110%.
For `CC(C)=CCOc1c2occc2cc2ccc(=O)oc12` [Compound 6, IMPERATORIN], under setting [1], the activity at 1 µM stood at 91%. Besides, the activity at 5 µM under setting [2] came out at 96%.
On to `COc1cc2c(cc1-c1cc3cc4ccoc4cc3oc1=O)OCO2` [Compound 7, PACHYRRHIZIN], for which the “ability to block melanin accumulation” value is given as “robust dose dependent ability to block melanin accumulation”. For the same molecule, under “Melan-a, 72 h”, the activity at 1 µM turned out to be 75% and the activity at 5 µM was 71%.
With `COc1ccc2ccc(=O)oc2c1` [Compound 8, HERNIARIN], under setting [1], the activity at 1 µM amounted to 84%. In addition, the activity at 5 µM under setting [2] is 81%.
With `COc1ccc(-c2c(OC)c3c(OC)c4c(cc3oc2=O)OC(C)(C)C=C4)cc1` [Compound 9, ROBUSTIC ACID METHYL ETHER], the “ability to block melanin accumulation” value is recorded as “robust dose dependent ability to block melanin accumulation”. Further, the activity at 1 µM under setting [1] was 69%. The activity at 5 µM under setting [2] was found to be 16%.
Regarding `COc1ccc(-c2c(O)c3c(OC)c4c(cc3oc2=O)OC(C)(C)C=C4)cc1` [Compound 10, ROBUSTIC ACID], the activity at 1 µM under setting [1] is 91%. The activity at 5 µM under setting [2] stood at 93%.
Consider `COc1c(O)cc2c(-c3ccccc3)cc(=O)oc2c1OC` [Compound 11, KUHLMANNIN], for which, under setting [1], the activity at 1 µM worked out at 81%. Besides, the activity at 5 µM under setting [2] was 84%.
Consider `COc1cc2ccc(=O)oc2c2ccoc12` [Compound 12, SPHONDIN], for which the activity at 1 µM under setting [1] worked out at 89%. Also, the activity at 5 µM under setting [2] amounted to 101%.
The corresponding values for `COc1c2ccoc2c(OC)c2oc(=O)ccc12` [Compound 13, ISOPIMPINELLIN] are 86% and 95%.
As for `COc1c(OC)c2occc2c2oc(=O)ccc12` [Compound 14, PIMPINELLIN], the activity at 1 µM under setting [1] stood at 76%. Moreover, the activity at 5 µM under setting [2] turned out to be 109%.
The corresponding values for `COc1cc2occc2c2oc(=O)ccc12` [Compound 15, ISOBERGAPTENE] are 86% and 108%.
With `COc1c(CC=C(C)C)c2c(c3oc(=O)c(-c4ccc(O)cc4)c(O)c13)C=CC(C)(C)O2` [Compound 16, SCANDENIN], the “ability to block melanin accumulation” value is listed as “robust dose dependent ability to block melanin accumulation”. Also, the activity at 1 µM under setting [1] worked out at 90%. Moreover, the activity at 5 µM under setting [2] is 64%.
Regarding `COc1ccc2c(C)cc(=O)oc2c1` [Compound 17, HYMECROMONE METHYL ETHER], under setting [1], the activity at 1 µM was found to be 96%. Also, the activity at 5 µM under setting [2] was determined as 93%.
Taken in the same sequence, the figures for `COc1c2ccoc2cc2oc(=O)ccc12` [Compound 18, BERGAPTENE] were 100% and 93%.
Consider `CCOP(=S)(OCC)Oc1ccc2c(C)c(Cl)c(=O)oc2c1` [Compound 19, COUMOPHOS], for which the “ability to block melanin accumulation” value was “robust dose dependent ability to block melanin accumulation”. In addition, under setting [1], the activity at 1 µM stood at 81%. In addition, under setting [2], the activity at 5 µM was 48%.
For the molecule `COc1c2occc2cc2ccc(=O)oc12` [Compound 20, METHOXSALEN, reference compound], the activity at 1 µM under setting [1] was 120%. Under setting [2], the activity at 5 µM came out at 125%.
The corresponding values for `CO[C@@H]1[C@@H](OC(N)=O)[C@@H](O)[C@H](Oc2ccc3c(O)c(NC(=O)c4ccc(O)c(CC=C(C)C)c4)c(=O)oc3c2C)OC1(C)C` [Compound 21, NOVOBIOCIN SODIUM, reference compound] are 90% and 94%.
On to `Cc1cc2cc3c(C)cc(=O)oc3c(C)c2o1` [Compound 22, TRIOXSALEN, reference compound], for which the activity at 1 µM under setting [1] was 90%. Moreover, under setting [2], the activity at 5 µM turned out to be 118%.
The corresponding values for `COc1cc(OC)c2ccc(=O)oc2c1` [Compound 23, CITROPTEN] are 86% and 97%.
Turning to `Cc1cc(=O)oc2cc(O)c(O)cc12` [Compound 24, 4-METHYLESCULETIN], the activity at 1 µM under setting [1] worked out at 88%. Besides, the activity at 5 µM under setting [2] was 100%.
For `O=c1ccc2cc(O)c(O)cc2o1` [Compound 25, ESCULETIN], the activity at 1 µM under setting [1] is 87%. Besides, the activity at 5 µM under setting [2] is 88%.
For `O=c1ccc2cc(O[C@@H]3O[C@H](CO)[C@@H](O)[C@H](O)[C@H]3O)c(O)cc2o1` [Compound 26, AESCULIN], the activity at 1 µM under setting [1] was determined as 70%. Further, the activity at 5 µM under setting [2] is 84%.
Turning to `CC1(C)Oc2ccc3ccc(=O)oc3c2CC1O` (stereo not shown) [Compound 27, LOMATIN], the activity at 1 µM under setting [1] turned out to be 89%. Besides, under setting [2], the activity at 5 µM amounted to 85%.
Consider `C/C=C(/C)C(=O)O[C@@H]1Cc2c(ccc3ccc(=O)oc23)OC1(C)C` [Compound 28, SELINIDIN], for which the activity at 1 µM under setting [1] came to 85%. The activity at 5 µM under setting [2] came out at 82%.
Turning to `C/C=C(\C)C(=O)O[C@@H]1c2c(ccc3ccc(=O)oc23)OC(C)(C)[C@@H]1OC(C)=O` [Compound 29, PTERYXIN], under setting [1], the activity at 1 µM was 93%. Besides, under setting [2], the activity at 5 µM is 101%.
On to `CC(=O)O[C@@H]1c2c(ccc3ccc(=O)oc23)OC(C)(C)[C@@H]1OC(=O)CC(C)C` [Compound 30, DIHYDROSAMIDIN], for which, under setting [1], the activity at 1 µM came out at 106%. For the same molecule, the activity at 5 µM under setting [2] was 88%.
Consider `CC(C)(O)[C@@H]1Cc2cc3ccc(=O)oc3cc2O1` [Compound 31, MARMESIN], for which the activity at 1 µM under setting [1] came out at 89%. Also, under setting [2], the activity at 5 µM is 97%.
Taken in the same sequence, the figures for `CC(=O)OC(C)(C)[C@@H]1Cc2cc3ccc(=O)oc3cc2O1` [Compound 32, MARMESIN ACETATE] were 77% and 92%.
For the molecule `COc1c(C(C)C)oc2cc3oc(=O)ccc3cc12` [Compound 34, PEUCEDANIN], under setting [1], the activity at 1 µM is 83%. Under setting [2], the activity at 5 µM stood at 84%.
On to `COc1c2c(c(CC=C(C)C)c3oc(=O)c(-c4ccc(O)cc4)c(O)c13)OC(C)(C)C=C2` [Compound 35, LO[…]], for which the activity at 1 µM under setting [1] amounted to 84%. Besides, under setting [2], the activity at 5 µM is 81%.
The corresponding values for `Cc1cc(=O)oc2c(O)c(O)ccc12` [Compound 37, 4- METHYLDAPHNETIN] are 83% and 88%.
Take `COc1cc2ccc(=O)oc2cc1O` [Compound 38, SCOPOLETIN]: under setting [1], the activity at 1 µM is 77%. Under setting [2], the activity at 5 µM was found to be 83%.
As for `COc1cc2ccc(=O)oc2c(O)c1O` [Compound 39, FRAXETIN], the activity at 1 µM under setting [1] came out at 84%. Besides, under setting [2], the activity at 5 µM is 89%.
Consider DERRUSNIN [Compound 36], for which the “% of control melanin remaining after treatment @ 1 μM” value under setting [1] is on record as 81 % of control. Also, the “% of control melanin remaining after treatment @ 5 μM” value under setting [2] is recorded as 87 % of control.
FELAMIDIN [Compound 40]: the “% of control melanin remaining after treatment @ 1 μM” value under setting [1] was 97 % of control. In addition, under setting [2], the “% of control melanin remaining after treatment @ 5 μM” value was 88 % of control.

Source of the values: patent US8563754B2, “Compounds, compositions and methods for preventing skin darkening” (priority 2010, dated 2013).
